The source of these data is patent publication US9556165B2 (priority 2012, dated 2017).

≈ marks a conversion by molar mass, not a printed value.

Common to all, as to format: cell-based
In one assay the test system is Bacteria. Put plainly: MIC determination in combination with β-lactamase inhibitors (constant 4 μg/mL).
A further assay concerns E. coli J62-TEM-3. Put plainly: MIC determination, broth microdilution (CLSI). The settings on record: broth microdilution. (In broth dilution the organism is exposed to a series of concentrations in liquid medium.)
In assay [1] the test system is P. aeruginosa 2297-con (AmpC derepressed). Put plainly: MIC determination, broth microdilution (CLSI).
The next assay deals with S. maltophilia ICB7569. Put plainly: MIC determination, broth microdilution (CLSI).
The next assay concerns A. baumannii ATCC15308. Put plainly: MIC determination, broth microdilution (CLSI). The settings on record: for MIC: Acinetobacter baumannii, ATCC15308, strain 9.
Another assay concerns M. morganii 126/3048. In words: MIC determination, broth microdilution (CLSI).
A further assay relates to K. pneumoniae 60. Put plainly: MIC determination, broth microdilution (CLSI).
The next assay deals with S. pneumoniae 113. In words: MIC determination, broth microdilution (CLSI). The settings on record: strain 13; broth microdilution.
A further assay relates to S. aureus 133. Put plainly: MIC determination, broth microdilution (CLSI). The settings on record: for MIC: Staphylococcus aureus, 133, strain 14, broth microdilution, read-out: MIC strain 14 (S. aureus 133).
A further assay deals with H. influenzae ATCC 49247. Put plainly: MIC determination, broth microdilution (CLSI). Conditions: strain 12; broth microdilution.
In a further assay the test system is E. cloacae 34654. In words: MIC determination, broth microdilution (CLSI).
Another assay relates to E. coli J62. Put plainly: MIC determination, broth microdilution (CLSI). Conditions: broth microdilution.
The next assay has as its system C. freundii K21/3034. Put plainly: MIC determination, broth microdilution (CLSI).
The subject of another assay is E. coli ATCC25922. Put plainly: MIC determination, broth microdilution (CLSI).
A further assay has as its system P. aeruginosa PAO1. In words: MIC determination, broth microdilution (CLSI). Conditions: for MIC: Pseudomonas aeruginosa, PAO1, strain 6.
For assay [2], the system named is P. aeruginosa 2297 (AmpC wt). In words: MIC determination, broth microdilution (CLSI). Conditions: for MIC: Pseudomonas aeruginosa, strain 7.

Turning to `CC1(C)[C@H](NC(=O)/C(=N\OC(COc2ccc(C(=N)NCCN)cc2)C(=O)O)c2csc(N)n2)C(=O)N1OS(=O)(=O)O` (mixture of isomers) [Example 44B, (2R and 2S)-3-{4-[N-(2-Aminoethyl)carbamimidoyl]phenoxy}-2-({[(1Z)-1-(2-amino-1,3-thiazol-4-yl)-2-{[(3S)-2,2-dimethyl-4-oxo-1-(sulfooxy)azetidin-3-yl]amino}-2-oxoethylidene]amino}oxy)propanoic acid], in the assay on Bacteria, the “MIC strain 19 (E. coli J62-TEM-3 + 4 μg/mL clavulanic acid)” value was 2 µg/mL, the “MIC strain 20 (E. coli J62-TEM-3 + 4 μg/mL sulbactam)” value stood at 2 µg/mL and the “MIC strain 21 (E. coli J62-TEM-3 + 4 μg/mL tazobactam)” value turned out to be 4 µg/mL. Further, the “MIC strain 18 (E. coli J62-TEM-3)” value with E. coli J62-TEM-3 turned out to be 4 µg/mL. For the same molecule, the “strain 8 MIC” value in assay [1] was 8 µg/mL. In addition, in the assay with S. maltophilia ICB7569, the “strain 10 MIC” value stood at 16 µg/mL. Besides, the “strain 9 MIC” value in the assay on A. baumannii ATCC15308 (strain 9) came out at 8 µg/mL. Also, in the assay with M. morganii 126/3048, the “strain 5 MIC” value is 4 µg/mL. Moreover, the “strain 2 MIC” value in the assay on K. pneumoniae 60 amounted to 1 µg/mL. Further, the “MIC strain 13 (S. pneumoniae 113)” value in the assay with S. pneumoniae 113 is 4 µg/mL. Further, the “strain 11 MIC” value in the assay on S. aureus 133 (strain 11) was “≦0.063 mg/L”. Further, the “MIC strain 12 (H. influenzae ATCC 49247)” value against H. influenzae ATCC 49247 was 0.5 µg/mL. Also, in the assay with E. cloacae 34654, the “strain 3 MIC” value was 4 µg/mL. In the assay with E. coli J62, the “MIC strain 17 (E. coli J62)” value was 2 µg/mL. The “strain 4 MIC” value in the assay with C. freundii K21/3034 worked out at 2 µg/mL. The “strain 1 MIC” value in the assay with E. coli ATCC25922 is 2 µg/mL. In addition, the “strain 6 MIC” value in the assay on P. aeruginosa PAO1 (strain 6) is 8 µg/mL. In [2], the “strain 7 MIC” value turned out to be 16 µg/mL.

The MIC is the lowest concentration that inhibits growth of the organism. Consider `CC1(C)[C@H](NC(=O)/C(=N\OC(CO)COc2ccc(C(=N)N)cc2)c2csc(N)n2)C(=O)N1OS(=O)(=O)O` (mixture of isomers) [Example 45A, (2Z)-2-(2-Amino-1,3-thiazol-4-yl)-2-({[(2R and 2S)-1-(4-carbamimidoylphenoxy)-3-hydroxypropan-2-yl]oxy}imino)-N-[(3S)-2,2-dimethyl-4-oxo-1-(sulfooxy)azetidin-3-yl]ethanamide], for which the “MIC strain 19 (E. coli J62-TEM-3 + 4 μg/mL clavulanic acid)” value in the assay with Bacteria was determined as 0.5 µg/mL. Further, in the assay with Bacteria, the “MIC strain 20 (E. coli J62-TEM-3 + 4 μg/mL sulbactam)” value turned out to be 0.5 µg/mL. The “MIC strain 21 (E. coli J62-TEM-3 + 4 μg/mL tazobactam)” value in the assay with Bacteria was 0.5 µg/mL. Besides, the “MIC strain 18 (E. coli J62-TEM-3)” value in the assay on E. coli J62-TEM-3 came to 1 µg/mL. Also, the “strain 8 MIC” value in assay [1] came to 8 µg/mL. Besides, the “strain 10 MIC” value in the assay on S. maltophilia ICB7569 worked out at 8 µg/mL. Besides, the minimal inhibitory concentration (MIC) in the assay with A. baumannii ATCC15308 was 2 µg/mL; in the assay on S. aureus 133 it was 8 µg/mL; with P. aeruginosa PAO1, 8 µg/mL; in [2] it was 16 µg/mL. Also, the “strain 5 MIC” value in the assay with M. morganii 126/3048 was determined as 0.5 µg/mL. Moreover, the “strain 2 MIC” value with K. pneumoniae 60 turned out to be 0.5 µg/mL. The “strain 3 MIC” value in the assay with E. cloacae 34654 was determined as 1 µg/mL. Also, in the assay on E. coli J62, the “MIC strain 17 (E. coli J62)” value was 0.5 µg/mL. Moreover, the “strain 4 MIC” value with C. freundii K21/3034 was found to be 0.25 µg/mL. The “strain 1 MIC” value with E. coli ATCC25922 was determined as 0.5 µg/mL.

On to `CC1(C)[C@H](NC(=O)/C(=N\OC(COc2ccc(C(=N)N)cc2)C(N)=O)c2csc(N)n2)C(=O)N1OS(=O)(=O)O` (stereo partly drawn) [Example 75, 2-({[(1Z)-1-(2-Amino-1,3-thiazol-4-yl)-2-{[(3S)-2,2-dimethyl-4-oxo-1-(sulfooxy)azetidin-3-yl]amino}-2-oxoethylidene]amino}oxy)-3-(4-carbamimidoylphenoxy)propanamide], for which, in the assay with Bacteria, the “MIC strain 19 (E. coli J62-TEM-3 + 4 μg/mL clavulanic acid)” value stood at 0.25 µg/mL. The “MIC strain 20 (E. coli J62-TEM-3 + 4 μg/mL sulbactam)” value in the assay with Bacteria came to 0.5 µg/mL. In addition, in the assay on Bacteria, the “MIC strain 21 (E. coli J62-TEM-3 + 4 μg/mL tazobactam)” value was 0.5 µg/mL. Moreover, the minimal inhibitory concentration (MIC) in the assay with E. coli J62-TEM-3 (Escherichia coli, J62TEM3, read-out: MIC strain 18 (E. coli J62-TEM-3), strain 18) is 1 µg/mL (≈ 1.71 µM); in [1] (Pseudomonas aeruginosa, read-out: strain 8 MIC, strain 8) it was 8 µg/mL (≈ 13.7 µM); against S. maltophilia ICB7569 (Stenotrophomonas maltophilia, ICB7569, strain 10), 4 µg/mL (≈ 6.84 µM); with A. baumannii ATCC15308, 2 µg/mL (≈ 3.42 µM); in the assay on M. morganii 126/3048 (Morganella morganii, 126/3048, strain 5) it was 0.25 µg/mL (≈ 0.428 µM); against K. pneumoniae 60 (Klebsiella pneumoniae, 60, strain 2), 0.5 µg/mL (≈ 0.855 µM). Besides, the MIC was 16 µg/mL (≈ 27.4 µM) with S. aureus 133; 0.5 µg/mL (≈ 0.855 µM) in the assay on E. cloacae 34654 (Enterobacter cloacae, 34654, strain 3); 0.5 µg/mL (≈ 0.855 µM) in the assay with E. coli J62 (Escherichia coli, J62, strain 17, read-out: MIC strain 17 (E. coli J62)); 0.125 µg/mL (≈ 0.214 µM) with C. freundii K21/3034 (Citrobacter freundii, K21/3034, strain 4); 0.25 µg/mL (≈ 0.428 µM) against E. coli ATCC25922 (Escherichia coli, ATCC25922, strain 1); 8 µg/mL (≈ 13.7 µM) in the assay on P. aeruginosa PAO1. For the same molecule, the lowest concentration to inhibit growth in assay [2] (MIC) was 16 µg/mL (≈ 27.4 µM).
